In patent publication US9193731B2, “Antimicrobial compounds and methods of making and using the same” (Melinta Therapeutics, Inc., priority 2009, dated 2015):

System: Escherichia coli strain ATCC25922
Test: standard microdilution assay to determine minimum inhibitory concentrations (MICs)
Format: cell-based
Details: for E. coli ATCC25922 MIC: Escherichia coli strain ATCC25922, microdilution; for MIC: Escherichia coli, ATCC25922, Escherichia coli strain ATCC25922, microdilution, read-out: E. coli ATCC25922 MIC
Outline: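 E. coli strain ATCC25922 tested per CLSI microdilution methodology (about 100 microliters per well) to find minimum inhibitory concentrations. Activity scored categorically at a 16 micrograms/ml threshold.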

Compound	E. coli ATCC25922 MIC	MIC [µg/mL]
N=C(N)NCCCNCc1ccc(-n2cc3cc(-c4ccc(C(NC5CN(C(=N)N)C5)C(F)(F)F)cc4)[nH]c3nc2=O)cc1 (stereo not shown) [Compound 1432]	+ (a “+” indicates that the compound has an MIC value of 16 micrograms/ml or less)	–
N=C(N)NCCCNC(=O)c1ccc(-n2cc3cc(-c4cccc(CCCCN)c4)[nH]c3nc2=O)cc1 [Compound 1433]	+ (a “+” indicates that the compound has an MIC value of 16 micrograms/ml or less)	–
N=C(N)NCCCNCc1ccc(-n2cc3cc(-c4cccc(OCC5(CN)CCC5)c4)[nH]c3nc2=O)cc1 [Compound 1434]	+ (a “+” indicates that the compound has an MIC value of 16 micrograms/ml or less)	–
NCc1ccc(-n2cc3cc(-c4cccc(OCC(F)(F)CN)c4)[nH]c3nc2=O)cc1 [Compound 1436]	–	> 16
N=C(N)NCCCNCc1ccc(-n2cc3cc(C4CCN(CCCCN)C4)[nH]c3nc2=O)cc1 (stereo not shown) [Compound 1437]	+ (a “+” indicates that the compound has an MIC value of 16 micrograms/ml or less)	–
N=C(N)NCCCNCc1ccc(-n2cc3cc(-c4cccc(OC[C@H]5CCNC5)c4)[nH]c3nc2=O)cc1 [Compound 1438]	+ (a “+” indicates that the compound has an MIC value of 16 micrograms/ml or less)	–
CC(N)CCOc1cccc(-c2cc3cn(-c4ccc(CNCCCNC(=N)N)cc4)c(=O)nc3[nH]2)c1 (stereo not shown) [Compound 1439]	+ (a “+” indicates that the compound has an MIC value of 16 micrograms/ml or less)	–
CC(N)CCOc1cccc(-c2cc3cn(-c4ccc(CNCCCNC(=N)N)cc4)c(=O)nc3[nH]2)c1 (stereo not shown) [Compound 1440]	+ (a “+” indicates that the compound has an MIC value of 16 micrograms/ml or less)	–
NCc1ccc(-n2cc3cc(-c4cccc(OC[C@H](F)CN)c4)[nH]c3nc2=O)cc1 [Compound 1443]	–	> 16
CO[C@@H](CN)COc1cccc(-c2cc3cn(-c4ccc(CN)cc4)c(=O)nc3[nH]2)c1 [Compound 1444]	–	> 16
N=C(N)NCCCNCc1ccc(-n2cc3cc(-c4cccc(CCCN)c4)[nH]c3nc2=O)cc1 [Compound 1446]	+ (a “+” indicates that the compound has an MIC value of 16 micrograms/ml or less)	–
N=C(N)NCCCNCc1ccc(-n2cc3cc(-c4cccc(OCCC5(N)CCCC5)c4)[nH]c3nc2=O)cc1 [Compound 1447]	+ (a “+” indicates that the compound has an MIC value of 16 micrograms/ml or less)	–
N=C(N)NCCCNCc1ccc(-n2cc3cc(C4CCN(CCCN)C4)[nH]c3nc2=O)cc1 (stereo not shown) [Compound 1448]	+ (a “+” indicates that the compound has an MIC value of 16 micrograms/ml or less)	–
N=C(N)NCCCNCc1ccc(-n2cc3cc(-c4cccc(SCCN)c4)[nH]c3nc2=O)cc1 [Compound 1451]	+ (a “+” indicates that the compound has an MIC value of 16 micrograms/ml or less)	–
N=C(N)NCCCNCc1ccc(-n2cc3cc(-c4cccc(OCC5CNCCO5)c4)[nH]c3nc2=O)cc1 (stereo not shown) [Compound 1452]	+ (a “+” indicates that the compound has an MIC value of 16 micrograms/ml or less)	–
COC(CN)COc1cccc(-c2cc3cn(-c4ccc(CNCCCNC(=N)N)cc4)c(=O)nc3[nH]2)c1 (stereo not shown) [Compound 1453]	+ (a “+” indicates that the compound has an MIC value of 16 micrograms/ml or less)	–
N=C(N)NCCCNCc1ccc(-n2cc3cc(-c4cccc(OCC(CN)OCC(F)(F)F)c4)[nH]c3nc2=O)cc1 (stereo not shown) [Compound 1455]	+ (a “+” indicates that the compound has an MIC value of 16 micrograms/ml or less)	–
N=C(N)NCCCNCc1ccc(-n2cc3cc(C4CCN(CC(O)CN)C4)[nH]c3nc2=O)cc1 (stereo not shown) [Compound 1456]	+ (a “+” indicates that the compound has an MIC value of 16 micrograms/ml or less)	–
N=C(N)NCCCNCc1ccc(-n2cc3cc(C4CCN(CC5CNC(=O)O5)C4)[nH]c3nc2=O)cc1 (stereo not shown) [Compound 1457]	− (a “−” indicates that the compound has an MIC value greater than 16 micrograms/ml)	–
CCOC(CN)COc1cccc(-c2cc3cn(-c4ccc(CNCCCNC(=N)N)cc4)c(=O)nc3[nH]2)c1 (stereo not shown) [Compound 1458]	+ (a “+” indicates that the compound has an MIC value of 16 micrograms/ml or less)	–
N=C(N)NCCCNCc1ccc(-n2cc3cc(-c4ccc(S(=O)(=O)N5CC(N)C5)cc4)[nH]c3nc2=O)cc1 [Compound 1459]	+ (a “+” indicates that the compound has an MIC value of 16 micrograms/ml or less)	–
N=C(N)NCCCNCc1ccc(-n2cc3cc(-c4cccc(S(=O)(=O)CCCN)c4)[nH]c3nc2=O)cc1 [Compound 1460]	+ (a “+” indicates that the compound has an MIC value of 16 micrograms/ml or less)	–
N=C(N)NCCCNCc1ccc(-n2cc3cc(-c4ccc(C(NC5CNC5)C(F)F)cc4)[nH]c3nc2=O)cc1 (stereo not shown) [Compound 1462]	+ (a “+” indicates that the compound has an MIC value of 16 micrograms/ml or less)	–

Compound	E. coli ATCC25922 MIC	MIC [µg/mL]
N=C(N)NCCCNCc1ccc(-n2cc3cc(-c4cc(OCC(F)CN)cc(OC(F)(F)F)c4)[nH]c3nc2=O)cc1 (stereo not shown) [Compound 1463]	+ (a “+” indicates that the compound has an MIC value of 16 micrograms/ml or less)	–
N=C(N)NCCCNCc1ccc(-n2cc3cc(C4CCN(CC(F)CN)C4)[nH]c3nc2=O)cc1 (stereo not shown) [Compound 2000a]	+ (a “+” indicates that the compound has an MIC value of 16 micrograms/ml or less)	–
N=C(N)NCCCNCc1ccc(-n2cc3cc(-c4cc(OCC(F)CN)cc(-c5cccnc5)c4)[nH]c3nc2=O)cc1 (stereo not shown) [Compound 2001a]	− (a “−” indicates that the compound has an MIC value greater than 16 micrograms/ml)	–
CS(=O)(=O)c1ccc(-c2cc(OCC(F)CN)cc(-c3cc4cn(-c5ccc(CNCCCNC(=N)N)cc5)c(=O)nc4[nH]3)c2)cc1 (stereo not shown) [Compound 2002a]	− (a “−” indicates that the compound has an MIC value greater than 16 micrograms/ml)	–
N=C(N)NCCCNCc1ccc(-n2cc3cc(C4CCCN(Cc5cnc[nH]5)C4)[nH]c3nc2=O)cc1 (stereo not shown) [Compound 2003a]	− (a “−” indicates that the compound has an MIC value greater than 16 micrograms/ml)	–
N=C(N)NCCCNCc1ccc(-n2cc3cc(-c4cc(CCO)cc(OCC(F)CN)c4)[nH]c3nc2=O)cc1 (stereo not shown) [Compound 2004a]	− (a “−” indicates that the compound has an MIC value greater than 16 micrograms/ml)	–
N=C(N)NCCCNCc1ccc(-n2cc3cc(-c4cc(OCC(F)CN)cc(N5CCNCC5)c4)[nH]c3nc2=O)cc1 (stereo not shown) [Compound 2005a]	+ (a “+” indicates that the compound has an MIC value of 16 micrograms/ml or less)	–
N=C(N)NCCCNCc1ccc(-n2cc3cc(-c4ccc(C(NC5CN(C(=N)N)C5)C(F)F)cc4)[nH]c3nc2=O)cc1 (stereo not shown) [Compound 2006a]	+ (a “+” indicates that the compound has an MIC value of 16 micrograms/ml or less)	–
N=C(N)NCCCNCc1ccc(-n2cc3cc(-c4cccc(S(=O)(=O)NCCN)c4)[nH]c3nc2=O)cc1 [Compound 2007a]	+ (a “+” indicates that the compound has an MIC value of 16 micrograms/ml or less)	–
N=C(N)NCCCNCc1ccc(-n2cc3cc(-c4cc(CCCCN)cc(OC(F)(F)F)c4)[nH]c3nc2=O)cc1 [Compound 2009a]	–	< 16
N=C(N)NCCCNCc1ccc(-n2cc3cc(-c4cc(OCCCN)cc(N5CCNCC5)c4)[nH]c3nc2=O)cc1 [Compound 2010a]	+ (a “+” indicates that the compound has an MIC value of 16 micrograms/ml or less)	–
N=C(N)NCCCNCc1ccc(-n2cc3cc(-c4cc(CCN)cc(OCC(F)CN)c4)[nH]c3nc2=O)cc1 (stereo not shown) [Compound 2011a]	+ (a “+” indicates that the compound has an MIC value of 16 micrograms/ml or less)	–
N=C(N)NCCCNCc1ccc(-n2cc3cc(-c4cc(CCNC(N)=O)cc(OCC(F)CN)c4)[nH]c3nc2=O)cc1 (stereo not shown) [Compound 2012a]	− (a “−” indicates that the compound has an MIC value greater than 16 micrograms/ml)	–
N=C(N)NCCCNCc1ccc(-n2cc3cc(-c4cc(OCC(F)CN)cc(N5CCOCC5)c4)[nH]c3nc2=O)cc1 (stereo not shown) [Compound 2013a]	+ (a “+” indicates that the compound has an MIC value of 16 micrograms/ml or less)	–
N=C(N)NCCCNCc1ccc(-n2cc3cc(C4CCCN(CCCF)C4)[nH]c3nc2=O)cc1 (stereo not shown) [Compound 2017a]	–	< 16
CC(=O)NCCN1CCCC(c2cc3cn(-c4ccc(CNCCCNC(=N)N)cc4)c(=O)nc3[nH]2)C1 (stereo not shown) [Compound 2018a]	–	< 16
N=C(N)NCCCNCc1ccc(-n2cc3cc(C4CCCN(CCNC(N)=O)C4)[nH]c3nc2=O)cc1 (stereo not shown) [Compound 2019a]	–	< 16
N=C(N)CCCN1CCCC(c2cc3cn(-c4ccc(CNCCCNC(=N)N)cc4)c(=O)nc3[nH]2)C1 (stereo not shown) [Compound 2020a]	–	< 16
CC(=O)NCCCN1CCCC(c2cc3cn(-c4ccc(CNCCCNC(=N)N)cc4)c(=O)nc3[nH]2)C1 (stereo not shown) [Compound 2021a]	–	> 16
N=C(N)NCCCNCc1ccc(-n2cc3cc(C4CCCN(Cc5ncc[nH]5)C4)[nH]c3nc2=O)cc1 (stereo not shown) [Compound 2022a]	–	> 16
N=C(N)NCCCNCc1ccc(-n2cc3cc(-c4cccc(C(NC5CN(C(=N)N)C5)C(F)(F)F)c4)[nH]c3nc2=O)cc1 (stereo not shown) [Compound 2024a]	+ (a “+” indicates that the compound has an MIC value of 16 micrograms/ml or less)	–
N=C(N)NCCCNCc1ccc(-n2cc3cc(-c4cccc(C(NCCN)C(F)(F)F)c4)[nH]c3nc2=O)cc1 (stereo not shown) [Compound 2025a]	+ (a “+” indicates that the compound has an MIC value of 16 micrograms/ml or less)	–
N=C(N)NCCCNCc1ccc(-n2cc3cc(C4CCCC(CNCCN)C4)[nH]c3nc2=O)cc1 (stereo not shown) [Compound 2026a]	–	< 16
